Laboratory results from patent publication US20090170897A1, “Method of Treating Neuropathic Pain” (Pfizer, Inc., priority 2004, published 2009).

What was measured:
Assay type in all cases: in vivo
[1] = test system: Streptozocin (STZ)-induced diabetes neuropathy in the rat; assay: STZ-induced static allodynia (von Frey hairs, PWT)
Description: (§1) Male Sprague Dawley rats weighing 150-400 g obtained from Charles River (Manston, Kent, UK.) were housed in groups of 3. All animals were kept under a 12 h light/dark cycle (lights on at 07 h 00 min) with food and water ad libitum. All experiments were carried out by an observer blind to the treatments and in accordance with the Home Office Animals (Scientific Procedures) Act 1986.
(§2) Diabetes was induced by a single intraperitoneal injection of streptozotocin (50 mg/kg) freshly dissolved in 0.9% sterile saline. Streptozotocin injection induces a reproducible mechanical allodynia within 3 weeks, lasting for at least 7 weeks (Chen and Pan, (Chen S R and Pan H L. Hypersensitivity of Spinothalamic Tract Neurons Associated With Diabetic Neuropathic Pain in Rats. J Neurophysiol 87: 2726-2733, 2002).
(§3) Animals were habituated to wire bottom test cages prior to the assessment of allodynia. Static allodynia was evaluated by application of von Frey hairs (Stoelting, Wood Dale, Ill., USA.) in ascending order of force (0.6, 1, 1.4, 2, 4, 6, 8, 10, 15 and 26 grams) to the plantar surface of hind paws. Each von Frey hair was applied to the paw for a maximum of 6 sec, or until a withdrawal response occurred. Once a withdrawal response to a von Frey hair was established, the paw was re-tested, starting with the filament below the one that produced a withdrawal, and subsequently with the remaining filaments in descending force sequence until no withdrawal occurred. The highest force of 26 g lifted the paw as well as eliciting a response, thus represented the cut off point. Each animal had both hind paws tested in this manner. The lowest amount of force required to elicit a response was recorded as paw withdrawal threshold (PWT) in grams. Static allodynia was defined as present if animals responded to a stimulus of, or less than, 4 g, which is innocuous in naive rats (Field M J, Bramwell S, Hughes J, Singh L. Detection of static and dynamic components of mechanical allodynia in rat models of neuropathic pain: are they signalled by distinct primary sensory neurones? Pain, 1999; 83:303-11).
(§4) All the experiments were conducted blind. Static allodynia was expressed as median [LQ; UQ] and analysed by Mann Whitney U test. Dynamic allodynia and thermal hyperalgesia were expressed as arithmetic mean±SEM and analysed by ANOVA.

[2] = test system: Chronic Constriction Injury (CCI) rat model of neuropathic pain; assay: CCI-induced static allodynia (von Frey hairs, PWT)
Description: as §1
The CCI of sciatic nerve was performed as previously described by Bennett and Xie (Bennett G J, Xie Y K. A peripheral mononeuropathy in rat that produces disorders of pain sensation like those seen in man. Pain:33:87-107, 1988). Animals were anaesthetised with a 2% isofluorane/O2 mixture. The right hind thigh was shaved and swabbed with 1% iodine. Animals were then transferred to a homeothermic blanket for the duration of the procedure and anaesthesia maintained during surgery via a nose cone. The skin was cut along the line of the thighbone. The common sciatic nerve was exposed at the middle of the thigh by blunt dissection through biceps femoris. About 7 mm of nerve was freed proximal to the sciatic trifurcation, by inserting forceps under the nerve and the nerve gently lifted out of the thigh. Suture was pulled under the nerve using forceps and tied in a simple knot until slight resistance was felt and then double knotted. The procedure was repeated until 4 ligatures (4-0 silk) were tied loosely around the nerve with approx 1 mm spacing. The incision was closed in layers.
as §3, §4

[3] = test system: Streptozocin (STZ)-induced diabetes neuropathy in the rat; assay: STZ-induced dynamic allodynia (cotton bud, PWL)
Description: as §1, §2
Dynamic allodynia was assessed by lightly stroking the plantar surface of the hind paw with a cotton bud. To avoid recording general motor activity, care was taken to perform this procedure in fully habituated rats that were not active. At least two measurements were taken at each time point, the mean of which represented the paw withdrawal latency (PWL). […] A pain withdrawal response was often accompanied with repeated flinching or licking of the paw. Dynamic allodynia was considered to be present if animals responded to the cotton stimulus within 8 sec of commencing stroking (Field et al, 1999).
as §4

[4] = compound level in rat CSF after oral administration
Description: Moreover the antagonist produced a long lasting anti-hyperalgesic effect in the CITH rat model. N-cyclopropyl-N-[2-methyl-1-(pyridine-3-carbonyl)-1,2,3,4-tetrahydro-quinolin-4-yl]-acetamide was dosed in the rat blood and CSF at various time points after oral administration.

[5] = 25 mg/kg PO, post compound dose
[6] = compound 25 mg/kg PO, gabapentin 100 mg/kg PO (positive control)

SMILES: CC(=O)N(C1CC1)C1CC(C)N(C(=O)c2cccnc2)c2ccccc21 (stereo not drawn) [N-cyclopropyl-N-[2-methyl-1-(pyridine-3-carbonyl)-1,2,3,4-tetrahydro-quinolin-4-yl]-acetamide]
- duration of biologically relevant effect, STZ static allodynia ([1]; 25 mg/kg PO): up to 2 hr
- time of peak effect, STZ static allodynia [1, 5]: 1 h
- effect on maintenance of STZ-induced static allodynia [1, 6]: reversed
- time of peak effect, static allodynia ([2]; 25 mg/kg PO (MED), post administration): 1 h
- effect on maintenance of CCI-induced static allodynia ([2]; 12.5, 25 and 50 mg/kg PO, from 14 days post surgery): reversed the maintenance of CCI-induced static and dynamic allodynia in a dose dependent manner
- MED, static allodynia ([2]; PO): 25 mg/kg
- static allodynia reversal relative to gabapentin ([2]; highest dose (50 mg/kg PO) vs gabapentin 100 mg/kg PO): curve profile comparable to gabapentin
- onset of anti-allodynic effect, static allodynia ([2]; highest dose (50 mg/kg PO), post dose, p<0.01 vs vehicle): 30 min
- duration of biologically relevant effect, STZ dynamic allodynia ([3]; 25 mg/kg PO): up to 2 hr
- time of peak effect, STZ dynamic allodynia [3, 5]: 1 h
- effect on maintenance of STZ-induced dynamic allodynia [3, 6]: reversed
- blood brain barrier penetration [4]: appears to cross the blood brain barrier
